According to ChEMBL document CHEMBL4811312, “SAR towards indoline and 3-azaindoline classes of IDO1 inhibitors” (Bioorg Med Chem Lett, 2021):

Legend:
[1] = molecular target: T1, Indoleamine 2,3-dioxygenase 1 (Homo sapiens, UniProt P14902); test: Inhibition of human IDO1 in human Hela cells; format: cell-based
Target sequence in this assay (P14902 whole entry): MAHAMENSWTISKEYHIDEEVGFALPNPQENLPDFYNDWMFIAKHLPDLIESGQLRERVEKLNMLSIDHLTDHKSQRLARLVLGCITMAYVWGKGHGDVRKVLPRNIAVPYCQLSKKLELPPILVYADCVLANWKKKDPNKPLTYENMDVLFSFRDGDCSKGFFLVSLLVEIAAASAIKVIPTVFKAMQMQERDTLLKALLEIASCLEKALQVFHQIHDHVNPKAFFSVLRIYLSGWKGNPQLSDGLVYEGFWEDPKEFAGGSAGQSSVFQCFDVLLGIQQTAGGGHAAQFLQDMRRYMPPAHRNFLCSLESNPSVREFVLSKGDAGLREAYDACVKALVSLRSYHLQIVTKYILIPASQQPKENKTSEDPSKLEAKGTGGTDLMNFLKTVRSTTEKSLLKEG

[2] = Mean residence time in Wistar Han rat at 0.5 mg/kg, iv; format: ADME, organism-based; conditions: in vivo
[3] = Clearance in Wistar Han rats at 0.05 mg/kg, iv; format: ADME, organism-based; conditions: rat, in vivo
[4] = molecular target: T1, Indoleamine 2,3-dioxygenase 1; test: Inhibition of human IDO1 assessed as unbound compound concentration by human whole blood assay; format: tissue-based
Target sequence in this assay (P14902 whole entry): as above

[5] = Unbound clearance in Wistar Han rats at 0.05 mg/kg, iv; format: ADME, organism-based; conditions: rat, in vivo
[6] = molecular target: T1, Indoleamine 2,3-dioxygenase 1; test: Inhibition of human IDO1 by human whole blood assay; format: tissue-based
Target sequence in this assay (P14902 whole entry): as above

[7] = molecular target: T1, Indoleamine 2,3-dioxygenase 1; test: Inhibition of human IDO1 in HEK293 cells at 10 uM relative to control; format: cell-based
Target sequence in this assay (P14902 whole entry, looked up): as the sequence (P14902 whole entry) above

[8] = molecular target: T1, Indoleamine 2,3-dioxygenase 1; test: Inhibition of human IDO1 in human Hela cells at 10 uM relative to control; format: cell-based
Target sequence in this assay (P14902 whole entry, looked up): as the sequence (P14902 whole entry) above

[9] = Mean residence time in Beagle dog at 0.5 mg/kg, iv; format: ADME, organism-based, Canis lupus familiaris; conditions: in vivo
[10] = Clearance in Beagle dog at 0.05 mg/kg, iv; format: ADME, organism-based, Canis lupus familiaris; conditions: in vivo
[11] = Unbound clearance in Beagle dog at 0.05 mg/kg, iv; format: ADME, organism-based, Canis lupus familiaris; conditions: in vivo

Compound `O=C(NC1(c2ccc3c(n2)CCN3C(=O)OC2CC2)CCC1)c1ccc(Cl)cc1` has an IC50 [1] of 0.0045 µM, an MRT [2] of 3.2 h and a clearance [3] of 20 mL/min/kg. For the same compound, the IC50 [4] was 0.00063 µM, the CL free [5] was 2049 mL/min/kg and the IC50 [6] was 0.063 µM.
In the case of `Cc1nccc(N2CCc3nc(C4(C(=O)Nc5ccc(F)cc5)CCC4)ccc32)n1`, the IC50 [1] is reported as 0.021 µM and the IC50 [6] is reported as 0.43 µM.
Compound `CCC(=O)NCc1ccc2c(c1)CCN2C(=O)c1ccccc1` has an inhibition [7] of 41%.
Compound `O=C(OC1CC1)N1CCc2cc(C3(C(=O)Nc4ccc(F)cc4)CCC3)ccc21` has an IC50 [1] of 0.0014 µM, an MRT [2] of 1.8 h and a clearance [3] of 87 mL/min/kg. It also gave an IC50 [4] of 0.00045 µM and a CL free [5] of 7720 mL/min/kg.
In the case of `O=C(NC1(c2ccc3c(n2)C2(CC2)CN3C(=O)OC2CC2)CC1)c1ccc(F)cc1`, the IC50 [1] is reported as 0.012 µM.
Compound `COC(=O)N1c2ccc(C3(NC(=O)c4ccc(F)cc4)CC3)cc2[C@H]2CC[C@H]21` has an IC50 [1] of 0.0028 µM, an MRT [2] of 1 h and a clearance [3] of 32 mL/min/kg. It also gave an IC50 [4] of 0.0041 µM, a CL free [5] of 2318 mL/min/kg and an IC50 [6] of 0.3 µM.
Compound `Cc1nccc(N2c3ccc(C4(NC(=O)c5ccc(F)cc5)CC4)cc3[C@@H]3C[C@@H]32)n1` has an IC50 [1] of 0.0082 µM.
`CC(C)C(=O)N1CCc2cc(CNC(=O)c3cccs3)ccc21` gave an inhibition [7] of 100%.
For `CC(C)NC(=O)NCc1ccc2c(c1)CCN2C(=O)c1ccccc1`, the inhibition [7] was 45%.
For `O=C(C1CC1)N1CCc2nc(C3(C(=O)Nc4ccc(F)cc4)CCC3)ccc21`, the IC50 [1] was 0.008 µM, the MRT [2] was 1.2 h and the clearance [3] was 60 mL/min/kg. For the same compound, the IC50 [4] was 0.029 µM, the CL free [5] was 668 mL/min/kg and the IC50 [6] was 0.33 µM.
Work on `CC(C)C(=O)N1CCc2cc(CNC(=O)c3ccccc3)ccc21` yielded an inhibition [7] of 100%.
`O=C(NCc1ccc2c(c1)CCN2C(=O)c1cccc(Cl)c1)c1ccc(Cl)cc1` showed an IC50 [1] of 0.09 µM and an inhibition [8] of 90%.
Compound `COC(=O)N1c2ccc(C3(NC(=O)c4ccc(F)cc4)CC3)cc2[C@@H]2CC[C@@H]21` has an IC50 [1] of 0.0056 µM, an MRT [2] of 0.8 h and a clearance [3] of 29 mL/min/kg. It also gave a CL free [5] of 2899 mL/min/kg.
Compound `CC(C)CC(=O)N1CCc2cc(CNC(=O)C3CC3)ccc21` has an inhibition [7] of 35%.
With `Cc1nccc(N2CCc3cc(C4(C(=O)Nc5ccc(F)cc5)CCC4)ccc32)n1` the IC50 [1] was 0.0052 µM and the IC50 [6] was 0.43 µM.
Compound `CCC(=O)N1CCc2cc(CNC(=O)c3ccnn3C)ccc21` has an inhibition [7] of 14%.
`COCC(=O)NCc1ccc2c(c1)CCN2C(=O)CC(C)C` showed an inhibition [7] of 20%.
For `Cc1nccc(N2c3ccc(C4(NC(=O)c5ccc(F)cc5)CC4)cc3[C@H]3C[C@H]32)n1`, the IC50 [1] was 0.0029 µM, the MRT [2] was 3.6 h and the clearance [3] was 3.3 mL/min/kg. For the same compound, the IC50 [6] was 0.18 µM.
`CC(=O)N1CCc2cc(CNC(=O)c3cccs3)ccc21` gave an inhibition [7] of 72%.
`COCCOC(=O)N1CCc2nc(C3(NC(=O)c4ccc(Cl)cc4)CCC3)ccc21` showed an IC50 [1] of 0.0069 µM.
`Cc1nccc(N2c3ccc(C4(NC(=O)c5ccc(F)cc5)CC4)cc3[C@H]3CC[C@H]32)n1` gave an IC50 [1] of 0.0038 µM and an IC50 [6] of 0.064 µM.
With `Cc1nccc(N2CC3(CC3)c3nc(C4(NC(=O)c5ccc(F)cc5)CC4)ccc32)n1` the IC50 [1] was 0.034 µM, the MRT [2] was 3.4 h and the clearance [3] was 7.3 mL/min/kg. For the same compound, the CL free [5] was 1176 mL/min/kg.
For `CC(C)CC(=O)N1CCc2cc(CNC(=O)c3cccs3)ccc21`, the inhibition [7] was 100%.
With `CC(C)C(=O)N1CCc2cc(CNC(=O)c3ccco3)ccc21` the IC50 [1] was 0.092 µM and the inhibition [8] was 92%.
`CCCC(=O)NCc1ccc2c(c1)CCN2C(=O)CC(C)C` gave an inhibition [7] of 64%.
`CCC(=O)N1CCc2cc(CNC(=O)c3cccc(F)c3)ccc21` showed an inhibition [7] of 82%.
In the case of `CC(C)C(=O)N1CCc2cc(CNC(=O)c3ccc(F)cc3)ccc21`, the inhibition [7] is reported as 88%.
`O=C(Nc1ccc(F)cc1)C1(c2ccc3c(n2)CCN3c2ccnc(C(F)(F)F)n2)CCC1` gave an IC50 [1] of 0.127 µM.
`O=C(NC1(c2ccc3c(n2)CCN3c2ccnc(C(F)(F)F)n2)CCC1)c1ccc(Cl)cc1` showed an IC50 [1] of 0.093 µM and an IC50 [6] of 0.24 µM.
`O=C(Nc1ccc(Cl)cc1)C1(c2ccc3c(n2)CCN3c2ccccn2)CCC1` showed an IC50 [1] of 0.0023 µM, an MRT [2] of 2.2 h and a clearance [3] of 53 mL/min/kg. For the same compound, the IC50 [4] was 0.00034 µM, the CL free [5] was 35929 mL/min/kg and the IC50 [6] was 0.34 µM.
In the case of `CCC(=O)N1CCc2cc(CNC(=O)c3ccc(F)cc3)ccc21`, the inhibition [7] is reported as 96%.
`Cc1nccc(N2c3ccc(C4(NC(=O)c5ccc(F)cc5)CC4)cc3[C@@H]3CC[C@@H]32)n1` showed an IC50 [1] of 0.005 µM and an IC50 [6] of 0.066 µM.
Work on `O=C(OC1CC1)N1CCc2nc(C3(C(=O)Nc4ccc(Cl)cc4)CCC3)ccc21` yielded an IC50 [1] of 0.002 µM and an IC50 [6] of 0.09 µM.
Compound `O=C(Nc1ccc(F)cc1)C1(c2ccc3c(c2)CCN3c2ccccn2)CCC1` has an IC50 [1] of 0.0031 µM.
For `CC(C)CC(=O)N1CCc2cc(CNC(=O)c3cccnc3)ccc21`, the inhibition [7] was 86%.
`O=C(Nc1ccc(Cl)cc1)C1(c2ccc3c(c2)CCN3c2ccccn2)CCC1` gave an IC50 [1] of 0.0016 µM and an IC50 [6] of 0.64 µM.
With `O=C(OC1CC1)N1CCc2nc(C3(C(=O)Nc4ccc(F)cc4)CCC3)ccc21` the IC50 [1] was 0.0027 µM, the MRT [2] was 2.7 h and the clearance [3] was 61 mL/min/kg. The CL free [5] was 1691 mL/min/kg.
With `CC(C)C(=O)N1CCc2cc(CNC(=O)c3ccc(Cl)cc3)ccc21` the inhibition [7] was 92%.
Compound `CCC(=O)N1CCc2cc(CNC(=O)c3cccc(Cl)c3)ccc21` has an inhibition [7] of 77%.
`O=C(c1cccc(Cl)c1)N1CCc2nc(C3(C(=O)Nc4ccc(F)cc4)CCC3)ccc21` gave an IC50 [4] of 0.00084 µM.
With `CC(C)CC(=O)N1CCc2cc(CNC(=O)c3ccco3)ccc21` the inhibition [7] was 100%.
For `CCC(=O)N1CCc2cc(CNC(=O)c3ccccc3)ccc21`, the inhibition [7] was 87%.
`Cc1nccc(N2CCc3nc(C4(C(=O)Nc5ccc(Cl)cc5)CCC4)ccc32)n1` showed an IC50 [1] of 0.0125 µM.
`Cc1nccc(N2CCc3nc(C4(NC(=O)c5ccc(Cl)cc5)CCC4)ccc32)n1` gave an IC50 [1] of 0.046 µM.
Compound `CCC(=O)N1CCc2cc(CNC(=O)c3cccs3)ccc21` has an inhibition [7] of 89%.
`O=C(NC1(c2ccc3c(n2)CCN3C(=O)OC2CC2)CC1)c1ccc(Cl)cc1` showed an MRT [9] of 4.9 h, an IC50 [1] of 0.0041 µM and an MRT [2] of 2.9 h. The clearance [3] was 4.8 mL/min/kg, the IC50 [4] was 0.011 µM and the clearance [10] was 14 mL/min/kg. The CL free [11] was 4800 mL/min/kg, the CL free [5] was 174 mL/min/kg and the IC50 [6] was 0.39 µM.
